This is an account of results in patent US20020111314A1, “Novel stimulation of gene expression and protein synthesis of heat shock protein 72/73 (Hsp 70)” (The Trustees of Columbia University, priority 1995, published 2002).

Square brackets hold non-standard residues; d marks the D form. Peptide text beside a SMILES is read from it. Nle = CCCC[C@H](N)C(=O)O

The experiment has as its system Hsp70. Briefly: Hsp70 induction in HepG2 cells ([3H]-leucine labeling, denaturing immunoprecipitation). To be noted: for Hsp70 levels after removal of ALLN: 4-hour preincubation. It is filed as cell-based, human. The method, then:
HepG2 cells were grown up to 95% confluence and then preincubated for 4 hours in a 37° C. incubator with serum-free minimum essential medium (MEM), followed by radiolabeling with 3H-leucine (150 μCi/ml) dissolved in serum-free, leucine-free medium. Preincubation and labeling medium each contained 1.5% bovine serum albumin (BSA) plus different concentrations of ALLN as indicated. After labeling, cells were collected and lysed, and Hsp70 was immunoprecipitated under denaturing conditions as described under Experimental Details. Cell lysates containing an equal amount of TCA-insoluble radioactivity were used for immunoprecipitation. (A): The immunoprecipitates were analyzed by sodium dodecyl sulfate-polyacryamide gel electrophoresis (SDS-PAGE) and fluorography. Numbers on the left-hand side denote molecular markers. (B): The Hsp70 radioactivity was quantitated by scintillation counting and plotted. All the values were presented as means±SD from three individual culture dishes.
FIGS. 3A-3B: Effects of the other protease inhibitors on Hsp70 biosynthesis in HepG2 cells. HepG2 cells were preincubated in serum-free MEM containing either 1.5% BSA alone (Control), or BSA plus 40 μg/ml of ALLN, 40 μg/ml of ALLM, 50 μg/ml of leupeptin, 50 μg/ml of pepstatin A, 25 μg/ml of E-64d, 1 mM of phenylmethylsulfonyl fluoride (PMSF), 100 KIU/ml of apotinin, 1 mM of Benzamidine (Benz), 200 μM of calpain inhibitor peptide (CIP). Radiolabeling (in the presence of protease inhibitors), lysis and immunoprecipitation were performed as described in FIG. 1. The Hsp70 specific radioactivity (A) and the amount of total incorporated radioactivity (TCA-cpm) (B) were compared with each other. All the values were presented as the mean±SD from three individual culture dishes.
FIGS. 9A-9B: Effects of proteasome inhibitors on Hsp70 induction. HepG2 cells were preincubated with the proteasome inhibitors MG132 at a final concentration of either 10 μM or 30 μM (A), or lactacystin at 10 μM (B) for 4 hours under conditions described in FIG. 3. These cells were then subjected to radiolabeling (30 min), cell lysis, and immunoprecipitation with anti-Hsp70 antibody. The experiments with MG132 (A) were repeated twice; the effects of lactacystin (B) were studied in triplicate culture dishes.
ALLN, leupeptin, mouse anti-human Hsp72/73 monoclonal antibody, a secondary antibody conjugated with horseradish peroxidase (HRP) (goat anti-rabbit immunoglubin G [IgG]), and rabbit anti-rat IgG antibody were from Boehringer Mannheim Co. Anti-Human Hsp25 and anti-human Hsp60 monoclonal antibodies, ALLM, Calpain inhibitor peptide (CIP), dimethyl sulfoxide (DMSO) and dithiothreitol (DTT) were from Sigma. Human Hsp70 oligonucleotide probe was from Oncogene Science. This oligonucleotide was ^32P labeled at the 5′-end by T4 Kinase, which was from Biolabs. ^32P was from ICN Pharmaceutical Inc. L-[4,5-^3H] leucine was from Amersham Co. Anti-human Bip (immunoglobulin heavy chain binding protein, also called Grp78), anti-human Hsp27, anti-human Hsp60, and anti-human Hsp90 monoclonal antibodies were from Stress Genes. Anti-human Hsp86 and Hsp104 antibodies were from Affinity Bioreagent Inc. Nitrocellular transfer and immobilization membranes were from Schleicher & Schuell, Keene, N.H. RNA extraction kits were from Biotect, Tex. The polyclonal antibody against the human HSF1 protein was a generous gift from Dr. Carl Wu of the National Institute of Health (Rabindran, et al., 1993). Ethylene glycol bis(succunimidylsuccinate) (EGS) was from Pierce. Cbz-leucyl-leucyl-leucinal (MG132) was a gift of Dr. H. Ploegh at the Massachusetts Institute of Technology. All the other tissue culture supplies and chemicals were obtained from supplies as previously described (Dixon, et al., 1991). The HepG2 cell culture conditions were maintained as previously described (Dixon, et al., 1991).

Consider `CCCC[C@@H](C=O)NC(=O)[C@H](CC(C)C)NC(=O)[C@H](CC(C)C)NC(C)=O` [ALLN, N-acetyl-leucyl-leucyl-norleucinal] (Ac-Leu-Leu-[Nle]-aldehyde), for which the “Hsp70 levels after removal of ALLN” value (HepG2, end of a 2-hour wash) is reported as 25 fold; the “Hsp70 levels after removal of ALLN” value (HepG2, end of a 6-hour wash) is 8 fold; the “Hsp70 levels after removal of ALLN” value (HepG2, end of an 8-hour wash) was determined as 4 fold. Moreover, under “HepG2, 30 min labeling, ALLN 40 μg/ml, data from several experiments”, the “increment of newly synthesized Hsp70 levels compared with untreated cells” value is reported as around 30 fold. Moreover, the “response of cellular Hsp70 levels to ALLN dose” value (HepG2, 4 hours, different doses (FIG. 1)) was “dose-dependent response”. In addition, under “HepG2, 4 h pre-treatment, ALLN 40, ALLM 40, leupeptin 50, pepstatin A 50, E-64d 25 μg/ml, PMSF 1 mM, aprotinin 100 KIU/ml”, the “induction of Hsp70 by protease inhibitors (FIG. 3A)” value is on record as “significantly induce”. For the same compound, for the setting “HepG2, 4 h preincubation with ALLN 40 μg/ml, labeling 10-60 min, every time point”, the “increase in rate of incorporation of [3H]-leucine into Hsp70” value is on record as “about 25 fold”. The Hsp70 levels induced result (HepG2, low concentration of ALLN 10 μg/ml, 4 h pre-treatment) is on record as “more than 9 fold”. Besides, the “induction of Hsp70 levels above baseline” value (HepG2 cells and human endothelial cells) is listed as “up to 30 fold”.
